Measured values published in paper PMC7495385, “Role of Escape Mutant-Specific T Cells in Suppression of HIV-1 Replication and Coevolution with HIV-1” (Journal of Virology, 2020).

Experiments:
Type in all cases: cell-based, human
[1] = tested on: RI8-6T-specific T cell clone 2F (KI-855); assay: ICS assay, 721.221-B*52:01 cells prepulsed with peptide, clone 2F from KI-855; conditions: RI8-6T-specific T cell clone 2F from KI-855; 2 h, then brefeldin A 4 h at 37°C; IFN-γ; means with SD (n = 3)
Description: (§1) PBMCs were stained with PE- or APC-conjugated tetramers, FITC-conjugated anti-CD3 (Dako, Glostrup, Denmark), Pacific blue-conjugated anti-CD8 MAb (BD Biosciences), and 7-AAD (BD Pharmingen), after which CD3^+ CD8^+ 7AAD^− tetramer^+ T cells were sorted in U-bottomed 96-well microtiter plates (1 cell/well for T cell clones and 100 to 500 cells/well for T cell lines) by using a FACSAria (BD Biosciences). The sorted cells were stimulated with the corresponding epitope peptide and cultured as previously described ([51]). After 2 to 3 weeks in culture, epitope-specific CD8^+ T cells were used in functional assays after their purity had been confirmed by flow cytometry analysis using tetramers.
(§2) 721.221 cells prepulsed with HIV-1 epitope peptide or 721.221 cells infected with HIV-1 were cocultured with T cell clones or lines in a 96-well plate for 2 h at 37°C. Brefeldin A (10 μg/ml) was then added, and the cells were incubated further for 4 h at 37°C. The cells were then fixed with 4% paraformaldehyde and incubated in permeabilization buffer (0.1% saponin–10% fetal bovine serum [FBS]–phosphate-buffered saline [PBS]), after which they were stained with APC-conjugated anti-CD8 MAb (Dako, Denmark) followed by FITC-conjugated anti-IFN-γ MAb (BD Biosciences). The percentage of IFN-γ-producing cells among the CD8^+ T cell population was determined by use of the FACSCanto II.

[2] = tested on: RI8-6T-specific T cell lines (KI-906); assay: ICS assay, 721.221-B*52:01 cells prepulsed with peptide, T cell lines from KI-906; conditions: two RI8-6T-specific T cell lines from KI-906 (Nov 2010, Aug 2013); 2 h, then brefeldin A 4 h at 37°C; IFN-γ+ of CD8+ T cells; means with SD (n = 3)
Description: as §1, §2

[3] = tested on: HLA-B*52:01-restricted CD8+ T cells (PBMCs of HIV-1 subtype B-infected individuals); assay: IFN-γ ELISPOT assay, T cell responses to peptides in HLA-B*52:01+ individuals; conditions: positive >200 spots/10^6 CD8+ T cells
Method: Ex vivo gamma interferon (IFN-γ) ELISPOT assays were performed as previously described ([6], [49]). The number of spots for a T cell response to each peptide was finally calculated by subtracting the number of spots in wells without peptides. The mean + 3 standard deviations (SD) of the spot number of samples from 13 HIV-1 naive individuals for the peptides was 162 spots/10^6 CD8^+ T cells ([6], [49]). Therefore, we defined >200 spots/10^6 CD8^+ T cells as positive responses.

[4] = tested on: cross-reactive T cell clone 8F (KI-855); assay: ICS assay, 721.221-B*52:01 cells prepulsed with peptide, clone 8F from KI-855; conditions: cross-reactive clone 8F from KI-855; 2 h, then brefeldin A 4 h at 37°C; IFN-γ; means with SD (n = 3)
Description: as §1, §2

RMYSPTSI [RI8-6T]
recognition of 721.221-B*52:01 cells prepulsed with peptide [1]: effectively recognized | recognition of 721.221-B*52:01 cells prepulsed with peptide [2]: recognized | number of individuals with epitope-specific T cells detected ([3]; 12 HLA-B*52:01+ individuals infected with Gag280V virus, IFN-γ ELISPOT): 4 individuals | T cell response to peptide in individual KI-809 ([3]; PBMCs from wild-type virus-infected KI-809, ELISPOT): strong T cell response | recognition of 721.221-B*52:01 cells prepulsed with peptide [4]: effectively recognized
